pIC50: −log10 of the molar value.
Experiments:
human SGLT2 = target: T1, human SGLT2 (Homo sapiens, UniProt P31639); assay: Inhibition of human Na+-glucose cotransporter (human SGLT2) activity: methyl-α-D-glucopyranoside intake in CHO cells stably expressing human SGLT2; type: cell-based; settings: inhibition of methyl-α-D-(U-14C)glucopyranoside intake, CHO cells stably expressing human SGLT2, 37° C., two hours
T1 construct: expressed in transfected cells; host or cells: CHO-K1
T1 sequence (P31639 1-672): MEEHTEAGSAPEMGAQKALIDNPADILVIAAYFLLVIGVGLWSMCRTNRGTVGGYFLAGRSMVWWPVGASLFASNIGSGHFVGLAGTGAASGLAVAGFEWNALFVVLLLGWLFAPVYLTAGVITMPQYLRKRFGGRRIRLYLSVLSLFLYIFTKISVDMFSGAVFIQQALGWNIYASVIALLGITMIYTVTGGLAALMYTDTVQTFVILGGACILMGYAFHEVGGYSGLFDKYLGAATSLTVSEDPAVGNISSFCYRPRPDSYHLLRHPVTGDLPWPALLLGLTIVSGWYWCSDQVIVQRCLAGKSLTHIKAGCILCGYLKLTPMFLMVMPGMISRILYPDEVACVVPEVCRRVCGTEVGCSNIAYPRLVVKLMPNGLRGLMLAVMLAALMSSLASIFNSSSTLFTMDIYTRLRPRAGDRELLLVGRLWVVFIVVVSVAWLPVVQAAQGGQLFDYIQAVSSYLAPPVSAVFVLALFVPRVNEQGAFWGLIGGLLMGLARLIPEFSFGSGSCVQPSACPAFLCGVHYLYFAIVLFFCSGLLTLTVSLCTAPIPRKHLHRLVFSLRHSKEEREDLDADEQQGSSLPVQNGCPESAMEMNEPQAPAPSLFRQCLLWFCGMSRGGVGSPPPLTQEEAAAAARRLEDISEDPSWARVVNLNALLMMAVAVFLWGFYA
Source text: [Inhibition of Human Na^+-Glucose Cotransporter (Human SGLT2) Activity]
(1) Preparation of Human SGLT 2 Expression Vector
First, single-strand cDNA was reversely transcripted from total RNA originating from the human kidney (manufactured by BD Biosciences Clontech) using a Superscript II (manufactured by Invitrogen Corporation) and a random hexamer. Second, using the cDNA as a template, a DNA fragment encoding a human SGLT2 (Wells, R. G. et al., Am. J. Physiol., 1992, 263(3) F459) was amplified by the PCR reaction using Pyrobest DNA polymerase (manufactured by Takara Bio Inc.). That is, a Hind III site and an EcoRI site were inserted into the 5′ side and the 3′ side of the DNA fragment, respectively by using primers.
The amplified fragment was cloned into a pCR2.1-Topo vector using a Topo TA Cloning Kit (manufactured by Invitrogen Corporation) and the cloned vector was transfected into a competent cell of Escherichia coli JM109. Ampicillin-resistant clones were cultured in a LB medium containing ampicillin (100 mg/l). A plasmid was purified from the cultured Escherichia coli using the method of Hanahan (see Maniatis et al., “Molecular Cloning”). A DNA fragment for encoding a human SGLT2 was obtained by the Hind III/EcoRI digestion of the plasmid and ligated and cloned to the same site of the expression vector pcDNA 3.1 (manufactured by Invitrogen Corporation) using a DNA ligase (manufactured by Roche Diagnostics). The ligated clone was transfected into a competent cell of Escherichia coli JM109 in the same manner as described above and cultured in a LB medium containing ampicillin, and a human SGLT2 expression vector was obtained using the method of Hanahan.
(2) Preparation of Human SGLT2 Expressed Cells
The human SGLT2 expression vector was transfected into a CHO-K1 cell using Lipofectamine2000 (manufactured by Invitrogen Corporation). The cell was cultured in a Ham's F12 medium (manufactured by Nissui Pharmaceutical Co., Ltd.) containing penicillin (50 IU/ml, manufactured by Dainippon Pharmaceutical Co., Ltd.), streptomycin (50 μg/ml, manufactured by Dainippon Pharmaceutical Co., Ltd.), Geneticin (40 μg/ml, manufactured by Invitrogen Corporation), and 10% fetal bovine serum in the presence of 5% CO2 at 37° C. for two weeks, and Geneticin-resistant clones were obtained.
(3) Inhibition of Methyl-α-D-Glucopyranoside Intake
After removing the medium of a CHO cell which stably expresses the human SGLT2, a pretreatment buffer solution (buffer solution of pH 7.4 containing choline chloride (140 mM), potassium chloride (2 mM), calcium chloride (1 mM), magnesium chloride (1 mM), 2-[4-(2-hydroxyethyl)1-piperazinyl]ethanesulfonic acid (10 mM), and tris(hydroxymethyl) aminomethane (5 mM)) was added in the amount of 100 μl per well, and incubated at 37° C. for 20 minutes.
11 μl of methyl-α-D-(U-14C) glucopyranoside (manufactured by Amersham Pharmacia Biotech) was mixed with 1,000 μl of a buffer solution for intake containing a test compound (buffer solution of pH 7.4 containing sodium chloride (140 mM), potassium chloride (2 mM), calcium chloride (1 mM), magnesium chloride (1 mM), methyl-α-D-glucopyranoside (50 μM), 2-[4-(2-hydroxyethyl)1-piperazinyl]ethanesulfonic acid (10 mM), and tris(hydroxymethyl)aminomethane (5 mM)) to prepare a buffer solution for intake. A buffer solution for intake without a test compound was prepared for a control group. A buffer solution for basal intake without a test compound containing coline chloride (140 mM) instead of sodium chloride for measuring the basal intake was prepared as well.
After removing the pretreatment buffer solution, the buffer solution for intake was added (25 μl per well) and incubated at 37° C. for two hours. […]

[1] = system: blood glucose of KK-A^y mice; assay: Hypoglycemic activity confirmation test in fed KK-Ay mice; type: in vivo, mouse; settings: rate of decrease in blood glucose AUC 0–8 hours vs control group; fed male KK-A^y mice, oral, 3 mg/10 ml suspension at 10 ml/kg
Method: [Hypoglycemic Activity Confirmation Test]
Fed KK-A^y mice (CLEA Japan, Inc., male) were used. The test compound was suspended in 0.5% methylcellulose solution to a concentration of 3 mg/10 ml. The weight of each mouse was measured. The test compound suspension was orally administered forcibly to the mice at a dose of 10 ml/kg. Only 0.5% methylcellulose solution was administered to the mice of a control group. Each group consisted of six mice. Blood was collected from the tail vein immediately before administering the compound and one, two, four, and eight hours after administering the compound. The blood glucose value was measured using a glucose CII Test Wako (manufactured by Wako Pure Chemical Industries, Ltd.). The intensity of hypoglycemic activity was determined by calculating the area under the blood glucose value-time curve (AUC) using a trapezoidal method from the glucose value of 0–8 hours after administering the compound and calculating the rate (%) of the decrease in the AUC of the drug-administered group from that of the control group.

| pIC50 (human SGLT2) | SMILES | Hypoglycemic activity [1] [%] |
| --- | --- | --- |
| 8.05 | OC[C@H]1O[C@@H](c2cc(Cc3cc4cccccc-4c3)ccc2O)[C@H](O)[C@@H](O)[C@@H]1O [Example 75, (1S)-1,5-anhydro-1-[5-(azulen-2-ylmethyl)-2-hydroxyphenyl]-D-glucitol] | – |
| 8.24 | COc1cc(OC)c([C@@H]2O[C@H](CO)[C@@H](O)[C@H](O)[C@H]2O)cc1Cc1cc2cccccc-2c1 [Example 60, (1S)-1,5-anhydro-1-[5-(azulen-2-ylmethyl)-2,4-dimethoxyphenyl]-D-glucitol] | 45 |
| 7.80 | CCOc1ccc(Cc2cc3cccccc-3c2)cc1[C@@H]1O[C@H](CO)[C@@H](O)[C@H](O)[C@H]1O [Example 7, (1S)-1,5-anhydro-1-[5-(azulen-2-ylmethyl)-2-ethoxyphenyl]-D-glucitol] | – |
| 7.66 | OC[C@H]1O[C@@H](c2cccc(Cc3cc4cccccc-4c3)c2)[C@H](O)[C@@H](O)[C@@H]1O [Example 25] | – |
| 7.80 | COc1ccc(Cc2cc3cccccc-3c2)cc1[C@@H]1O[C@H](CO)[C@@H](O)[C@H](O)[C@H]1O [Example 28] | 46 |
| 7.00 | OC[C@H]1O[C@@H](c2cccc(Cc3ccc4cccc-4cc3)c2)[C@H](O)[C@@H](O)[C@@H]1O [Example 21] | – |
| 7.54 | Cc1ccc(Cc2cc3cccccc-3c2)cc1[C@@H]1O[C@H](CO)[C@@H](O)[C@H](O)[C@H]1O [Example 11] | – |

Source: US7169761B2, “Azulene derivatives and salts thereof” (Astellas Pharma Inc., priority 2002, dated 2007)
